Assay results reported in patent US20230278972A1, “SUBSTITUTED HALOALKYL SULFONANILIDE HERBICIDES” (FMC Corporation, priority 2020, published 2023).

What was measured:
Format in all cases: in vivo
corn (Zea mays) = experiment: Test A1 preemergence, corn
How it was run: (§1)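 Pre: seeds in loam/sand blend, directed soil spray. Post: potted plants, same soil, 2–10 cm, 1–2 leaf stage. Chemicals in non-phytotoxic solvent + surfactant for both.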

[1] = system: Foxtail, Giant (giant foxtail, Setaria faberi); experiment: Test A1 preemergence, Foxtail, Giant
How it was run: as §1

kochia (Bassia scoparia) [2] = experiment: Test A1 preemergence, kochia
How it was run: as §1

[3] = system: Oat, Wild (wild oat, Avena fatua); experiment: Test A1 preemergence, Oat, Wild
How it was run: as §1

[4] = system: ragweed (common ragweed, Ambrosia artemisiifolia); experiment: Test A1 preemergence, ragweed
How it was run: as §1

kochia (Bassia scoparia) [5] = experiment: Test A1 postemergence, kochia; conditions: Postemergence
How it was run: (§2)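 Plants grown in pots of loam/sand mix; preemergence = soil-directed spray on seeded pots, postemergence = spray at 1–2 leaves, height 2–10 cm; test chemicals formulated in non-phytotoxic solvent with surfactant.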

[6] = system: Oat, Wild (wild oat, Avena fatua); experiment: Test A1 postemergence, Oat, Wild; conditions: Postemergence
How it was run: as §1

[7] = system: ragweed (common ragweed, Ambrosia artemisiifolia); experiment: Test A1 postemergence, ragweed; conditions: Postemergence
How it was run: as §1

soybean (Glycine max) = experiment: Test A1 postemergence, soybean; conditions: Postemergence
How it was run: as §2

[8] = system: barnyardgrass (Echinochloa crus-galli); experiment: Test B1 flooded paddy test, barnyardgrass; conditions: 250 g ai/ha, Flood, applied to paddy water, 2-leaf stage, visually evaluated after 10 to 14 days
Excerpt: A dash (-) response means no test result.

[9] = 31 g ai/ha, 0 to 100 scale (0 no effect, 100 complete control)
[10] = 125 g ai/ha, 0 to 100 scale, 0 no effect, 100 complete control
[11] = 31 g ai/ha, 0 to 100 scale (0 no effect, 100 complete control), 10 days

COC(=O)OCN(c1cc(C2=NOC3CCCC23)c(C)cc1C)S(=O)(=O)C(F)(F)F (stereo not shown) [Compound 315] was tested, and the “Plant response rating, Corn” value (corn (Zea mays); [9]) was 10, the “Plant response rating, Corn” value (corn (Zea mays); [10]) was 20 and the “Plant response rating, Foxtail, Giant” value [1, 9] was 70. For the same compound, the “Plant response rating, Foxtail, Giant” value [1, 10] was 90, the “Plant response rating, Kochia” value (kochia (Bassia scoparia) [2]; [9]) was 0 and the “Plant response rating, Kochia” value (kochia (Bassia scoparia) [2]; [10]) was 60. The “Plant response rating, Oat, Wild” value [3, 9] was 0, the “Plant response rating, Oat, Wild” value [3, 10] was 20 and the “Plant response rating, Ragweed” value [4, 9] was 20. The “Plant response rating, Ragweed” value [4, 10] was 60, the “Plant response rating, Kochia” value (kochia (Bassia scoparia) [5]; [11]) was 50 and the “Plant response rating, Kochia” value (kochia (Bassia scoparia) [5]; 125 g ai/ha, 0 to 100 scale) was 80. The “Plant response rating, Oat, Wild” value [6, 11] was 0, the “Plant response rating, Oat, Wild” value ([6]; 125 g ai/ha, 0 to 100 scale) was 20 and the “Plant response rating, Ragweed” value [7, 11] was 20. For the same compound, the “Plant response rating, Ragweed” value ([7]; 125 g ai/ha, 0 to 100 scale) was 80, the “Plant response rating, Soybean” value (soybean (Glycine max); [11]) was 40 and the “Plant response rating, Soybean” value (soybean (Glycine max); 125 g ai/ha, 0 to 100 scale) was 60. The “Plant response rating, Barnyardgrass (0 to 100 scale, 0 is no effect, 100 is complete control)” value [8] was 98.

For Cc1c(NS(=O)(=O)C(F)(F)F)cc(C(=O)N2CC(C)OC(C)C2)c(C)c1C (stereo not shown) [Compound 328], the “Plant response rating, Corn” value (corn (Zea mays); [9]) was 10, the “Plant response rating, Corn” value (corn (Zea mays); [10]) was 60 and the “Plant response rating, Foxtail, Giant” value [1, 9] was 20. The “Plant response rating, Foxtail, Giant” value [1, 10] was 100, the “Plant response rating, Kochia” value (kochia (Bassia scoparia) [2]; [9]) was 20 and the “Plant response rating, Kochia” value (kochia (Bassia scoparia) [2]; [10]) was 90. The “Plant response rating, Oat, Wild” value [3, 9] was 0, the “Plant response rating, Oat, Wild” value [3, 10] was 30 and the “Plant response rating, Ragweed” value [4, 9] was 10. The “Plant response rating, Ragweed” value [4, 10] was 80, the “Plant response rating, Kochia” value (kochia (Bassia scoparia) [5]; [11]) was 10 and the “Plant response rating, Kochia” value (kochia (Bassia scoparia) [5]; 125 g ai/ha, 0 to 100 scale) was 60. For the same compound, the “Plant response rating, Oat, Wild” value [6, 11] was 0, the “Plant response rating, Oat, Wild” value ([6]; 125 g ai/ha, 0 to 100 scale) was 0 and the “Plant response rating, Ragweed” value [7, 11] was 40. For the same compound, the “Plant response rating, Ragweed” value ([7]; 125 g ai/ha, 0 to 100 scale) was 70, the “Plant response rating, Soybean” value (soybean (Glycine max); [11]) was 60 and the “Plant response rating, Soybean” value (soybean (Glycine max); 125 g ai/ha, 0 to 100 scale) was 60. The “Plant response rating, Barnyardgrass (0 to 100 scale, 0 is no effect, 100 is complete control)” value [8] was 40.

In the case of Cc1cc(C)c(C2=NOC3OCCC23)cc1NS(=O)(=O)C(F)(F)F (stereo not shown) [Compound 349], the “Plant response rating, Corn” value (corn (Zea mays); [9]) was 20, the “Plant response rating, Corn” value (corn (Zea mays); [10]) was 100 and the “Plant response rating, Foxtail, Giant” value [1, 9] was 90. For the same compound, the “Plant response rating, Foxtail, Giant” value [1, 10] was 100, the “Plant response rating, Kochia” value (kochia (Bassia scoparia) [2]; [9]) was 80 and the “Plant response rating, Kochia” value (kochia (Bassia scoparia) [2]; [10]) was 100. For the same compound, the “Plant response rating, Oat, Wild” value [3, 9] was 10, the “Plant response rating, Oat, Wild” value [3, 10] was 50 and the “Plant response rating, Ragweed” value [4, 9] was 30. The “Plant response rating, Ragweed” value [4, 10] was 90, the “Plant response rating, Kochia” value (kochia (Bassia scoparia) [5]; [11]) was 70 and the “Plant response rating, Kochia” value (kochia (Bassia scoparia) [5]; 125 g ai/ha, 0 to 100 scale) was 80. For the same compound, the “Plant response rating, Oat, Wild” value [6, 11] was 0, the “Plant response rating, Oat, Wild” value ([6]; 125 g ai/ha, 0 to 100 scale) was 30 and the “Plant response rating, Ragweed” value [7, 11] was 70. The “Plant response rating, Ragweed” value ([7]; 125 g ai/ha, 0 to 100 scale) was 90, the “Plant response rating, Soybean” value (soybean (Glycine max); [11]) was 30 and the “Plant response rating, Soybean” value (soybean (Glycine max); 125 g ai/ha, 0 to 100 scale) was 70. The “Plant response rating, Barnyardgrass (0 to 100 scale, 0 is no effect, 100 is complete control)” value [8] was 90.

For CCOC(=O)N(c1cc(C(=O)N2CCC(c3ccccc3)CC2)c(C)cc1C)S(=O)(=O)C(F)(F)F [Compound 365], the “Plant response rating, Corn” value (corn (Zea mays); [9]) was 0, the “Plant response rating, Corn” value (corn (Zea mays); [10]) was 0 and the “Plant response rating, Foxtail, Giant” value [1, 9] was 0. The “Plant response rating, Foxtail, Giant” value [1, 10] was 30, the “Plant response rating, Kochia” value (kochia (Bassia scoparia) [2]; [9]) was 0 and the “Plant response rating, Kochia” value (kochia (Bassia scoparia) [2]; [10]) was 0. For the same compound, the “Plant response rating, Oat, Wild” value [3, 9] was 0, the “Plant response rating, Oat, Wild” value [3, 10] was 0 and the “Plant response rating, Ragweed” value [4, 9] was 0. For the same compound, the “Plant response rating, Ragweed” value [4, 10] was 20, the “Plant response rating, Kochia” value (kochia (Bassia scoparia) [5]; [11]) was 10 and the “Plant response rating, Kochia” value (kochia (Bassia scoparia) [5]; 125 g ai/ha, 0 to 100 scale) was 40. For the same compound, the “Plant response rating, Oat, Wild” value [6, 11] was 0, the “Plant response rating, Oat, Wild” value ([6]; 125 g ai/ha, 0 to 100 scale) was 0 and the “Plant response rating, Ragweed” value [7, 11] was 0. The “Plant response rating, Ragweed” value ([7]; 125 g ai/ha, 0 to 100 scale) was 30, the “Plant response rating, Soybean” value (soybean (Glycine max); [11]) was 0 and the “Plant response rating, Soybean” value (soybean (Glycine max); 125 g ai/ha, 0 to 100 scale) was 60. For the same compound, the “Plant response rating, Barnyardgrass (0 to 100 scale, 0 is no effect, 100 is complete control)” value [8] was 15.

With Cc1c(C(=O)N2CCCCC2)cc(NS(=O)(=O)C(F)(F)F)c(Cl)c1F [Compound 333] the “Plant response rating, Corn” value (corn (Zea mays); [9]) was 0, the “Plant response rating, Corn” value (corn (Zea mays); [10]) was 0 and the “Plant response rating, Foxtail, Giant” value [1, 9] was 30. The “Plant response rating, Foxtail, Giant” value [1, 10] was 100, the “Plant response rating, Kochia” value (kochia (Bassia scoparia) [2]; [9]) was 20 and the “Plant response rating, Kochia” value (kochia (Bassia scoparia) [2]; [10]) was 80. For the same compound, the “Plant response rating, Oat, Wild” value [3, 9] was 20, the “Plant response rating, Oat, Wild” value [3, 10] was 40 and the “Plant response rating, Ragweed” value [4, 9] was 0. For the same compound, the “Plant response rating, Ragweed” value [4, 10] was 70, the “Plant response rating, Kochia” value (kochia (Bassia scoparia) [5]; [11]) was 30 and the “Plant response rating, Kochia” value (kochia (Bassia scoparia) [5]; 125 g ai/ha, 0 to 100 scale) was 70. The “Plant response rating, Oat, Wild” value [6, 11] was 0, the “Plant response rating, Oat, Wild” value ([6]; 125 g ai/ha, 0 to 100 scale) was 10 and the “Plant response rating, Ragweed” value [7, 11] was 0. For the same compound, the “Plant response rating, Ragweed” value ([7]; 125 g ai/ha, 0 to 100 scale) was 80, the “Plant response rating, Soybean” value (soybean (Glycine max); [11]) was 30 and the “Plant response rating, Soybean” value (soybean (Glycine max); 125 g ai/ha, 0 to 100 scale) was 80. For the same compound, the “Plant response rating, Barnyardgrass (0 to 100 scale, 0 is no effect, 100 is complete control)” value [8] was 0.

For COC1CCCN(C(=O)c2cc(NS(=O)(=O)C(F)(F)F)c(Cl)c(F)c2C)C1 (stereo not shown) [Compound 334], the “Plant response rating, Corn” value (corn (Zea mays); [9]) was 0, the “Plant response rating, Corn” value (corn (Zea mays); [10]) was 0 and the “Plant response rating, Foxtail, Giant” value [1, 9] was 40. For the same compound, the “Plant response rating, Foxtail, Giant” value [1, 10] was 70, the “Plant response rating, Kochia” value (kochia (Bassia scoparia) [2]; [9]) was 0 and the “Plant response rating, Kochia” value (kochia (Bassia scoparia) [2]; [10]) was 20. The “Plant response rating, Oat, Wild” value [3, 9] was 10, the “Plant response rating, Oat, Wild” value [3, 10] was 20 and the “Plant response rating, Ragweed” value [4, 9] was 0. For the same compound, the “Plant response rating, Ragweed” value [4, 10] was 50, the “Plant response rating, Kochia” value (kochia (Bassia scoparia) [5]; [11]) was 10 and the “Plant response rating, Kochia” value (kochia (Bassia scoparia) [5]; 125 g ai/ha, 0 to 100 scale) was 40. The “Plant response rating, Oat, Wild” value [6, 11] was 0, the “Plant response rating, Oat, Wild” value ([6]; 125 g ai/ha, 0 to 100 scale) was 0 and the “Plant response rating, Ragweed” value [7, 11] was 0. The “Plant response rating, Ragweed” value ([7]; 125 g ai/ha, 0 to 100 scale) was 50, the “Plant response rating, Soybean” value (soybean (Glycine max); [11]) was 20 and the “Plant response rating, Soybean” value (soybean (Glycine max); 125 g ai/ha, 0 to 100 scale) was 40. The “Plant response rating, Barnyardgrass (0 to 100 scale, 0 is no effect, 100 is complete control)” value [8] was 15.

With Cc1cc(C)c(N(COC(=O)C(C)(C)C)S(=O)(=O)C(F)(F)F)cc1C1=NOC2COCC12 (stereo not shown) [Compound 301] the “Plant response rating, Corn” value (corn (Zea mays); [9]) was 0, the “Plant response rating, Corn” value (corn (Zea mays); [10]) was 10 and the “Plant response rating, Foxtail, Giant” value [1, 9] was 10. For the same compound, the “Plant response rating, Foxtail, Giant” value [1, 10] was 90, the “Plant response rating, Kochia” value (kochia (Bassia scoparia) [2]; [9]) was 30 and the “Plant response rating, Kochia” value (kochia (Bassia scoparia) [2]; [10]) was 80. For the same compound, the “Plant response rating, Oat, Wild” value [3, 9] was 0, the “Plant response rating, Oat, Wild” value [3, 10] was 0 and the “Plant response rating, Ragweed” value [4, 9] was 0. For the same compound, the “Plant response rating, Ragweed” value [4, 10] was 80, the “Plant response rating, Kochia” value (kochia (Bassia scoparia) [5]; [11]) was 0 and the “Plant response rating, Kochia” value (kochia (Bassia scoparia) [5]; 125 g ai/ha, 0 to 100 scale) was 30. The “Plant response rating, Oat, Wild” value [6, 11] was 0, the “Plant response rating, Oat, Wild” value ([6]; 125 g ai/ha, 0 to 100 scale) was 10 and the “Plant response rating, Ragweed” value [7, 11] was 60. The “Plant response rating, Ragweed” value ([7]; 125 g ai/ha, 0 to 100 scale) was 70, the “Plant response rating, Soybean” value (soybean (Glycine max); [11]) was 10 and the “Plant response rating, Soybean” value (soybean (Glycine max); 125 g ai/ha, 0 to 100 scale) was 40. For the same compound, the “Plant response rating, Barnyardgrass (0 to 100 scale, 0 is no effect, 100 is complete control)” value [8] was 95.
